Key:
[1] = tested on: GnRHR-expressing LβT2 gonadotrope cell line; experiment: SYBR green real-time PCR of transcripts regulated by GnRH in LβT2 cells; type: cell-based, mouse; conditions: 1 hour
Experimental: Cell Culture and Sample Preparation: LβT2 cells were obtained and maintained at 37° C. in 5% CO2 in humidified air in DMEM (Mediatech) containing 10% fetal bovine serum (Gemini). For experiments. 40-50×10^6 cells were seeded in 15 cm dishes. The medium was replaced 21 hours later with DMEM containing 25 mM HEPES (Mediatech) and glutamine. 18 hours later, the cells were treated with 100 nM GnRH or vehicle and were returned to the CO2 incubator for 1 hour. The incubation was stopped by aspirating the incubation medium and adding 10 ml of lysis buffer (4M guanidinium thiocyanate, 25 mM sodium citrate, pH 7.0, 0.5% N-lauroyl-sarcosine, and 0.1 M 2-mercaptoethanol). Total RNA was isolated according to the method of Chomczynski and Sacchi (1987) supra. Approximately 400 μg total RNA was obtained from each plate.
Real Time PCR. The protocol of Example 1 above, was used. Briefly, […] total RNA was converted into cDNA and […] (approximately 500 pg) was utilized for 40 cycle three-step PCR in an ABI Prism 7700 with 20 mM Tris pH 8.4, 50 mM KCL, 3 mM MgCl2, 200 μM dNTPs, 0.5×SYBR® green (Molecular Probes), […] primer and 0.5 U Platinum Taq (Life Technologies). Amplicon size and reaction specificity was confirmed by agarose gel electrophoresis. The number of target copies in each sample was interpolated from its detection threshold (CT) value using a plasmid or purified PCR product standard curve included on each plate. The sequence of the 60 primer sets utilized can be found in supplementary material. Each transcript in each sample was assayed 5 times and the median CT values were used for analysis.
Confirmation of Gene Regulation by Real-Time PCR. The measurement accuracy of the microarray and the biological variability of the transcriptional program identified was evaluated through a validation study comprising real time PCR assays of 60 transcripts, including 26 genes that met the threshold for regulation in the microarray assay. To generate accurate and precise reference measurements of these genes, 5 measurements were made of each gene in each RNA sample and the measurements were calibrated with a standard curve included on each PCR plate (FIG. 4). Nine experimental pairs of vehicle and GnRH-treated cultures were tested, including the microarray assayed samples. 100% (17 of 17) of the gene changes showing >1.6-fold change on the microarray and 66% (6 of 9) of gene changes showing between 1.3 and 1.6-fold changes were confirmed by PCR. […] Because the threshold was set at a 1.3-fold change, these genes are considered to be not confirmed (see discussion below).

[2] = tested on: gonadotrope cell line LβT2 cells; experiment: Time course of IRC response to GnRH in presence and absence of cyclohexamide (CHX); type: cell-based, mouse; conditions: 100 nM GnRH, protein synthesis inhibitor cyclohexamide
Experimental: The cells were treated with 100 nM GnRH in the presence and absence of the inhibitor of protein synthesis, cyclohexamide (CHX). […] No other proteins need to be synthesized to induce activation of this IRC. The use of a time course such as that illustrated allow selection of the optimum time point or time points after stimulation at which to assay the IRCs to provide the most complete map of the cell global signal transduction response.
The proper time point or time points after exposure can be determined experimentally in any system by performing a time course of the gene response. If a single time point after exposure is assayed, it is best to select a time at which most IRCs are continuing to show an increase in the level of expression. This is usually between 30 minutes and 1 hour.

[3] = 100 nM GnRH vs vehicle, LβT2 cells
[4] = gene did not meet the criteria on the microarray, 100 nM GnRH

gonadotropin releasing hormone [GnRH]
1κB fold-change, SYBR PCR (n = 9) [1, 3]: 2.6 ± 0.2 fold | Egr1 fold-change, SYBR PCR (n = 9) [1, 3]: 390.6 ± 83.9 fold | Egr2 fold-change, SYBR PCR (n = 9) [1, 3]: 294.7 ± 35.6 fold | Gem fold-change, SYBR PCR (n = 9) [1, 3]: 4.3 ± 0.3 fold | HSP30 fold-change, SYBR PCR (n = 9) [1, 3]: 1.9 ± 0.2 fold | Klf4 fold-change, SYBR PCR (n = 9) [1, 3]: 2.9 ± 0.3 fold | Klf-like EST fold-change, SYBR PCR (n = 9) [1, 3]: 2.5 ± 0.2 fold | LRG21 fold-change, SYBR PCR (n = 9) [1, 3]: 96.8 ± 15.7 fold | MKP1/3CH134 fold-change, SYBR PCR (n = 9) [1, 3]: 3.4 ± 0.4 fold | NMDMC fold-change, SYBR PCR (n = 9) [1, 3]: 1.6 ± 0.3 fold | Nr4a1/nur77 fold-change, SYBR PCR (n = 9) [1, 3]: 49.4 ± 10.1 fold | Nrf2 fold-change, SYBR PCR (n = 9) [1, 3]: 1.5 ± 0.1 fold | PRL1 fold-change, SYBR PCR (n = 9) [1, 3]: 2.1 ± 0.1 fold | Period1 fold-change, SYBR PCR (n = 9) [1, 3]: 4.9 ± 1.1 fold | Rgs2 fold-change, SYBR PCR (n = 9) [1, 3]: 8.7 ± 0.4 fold | TSC22 fold-change, SYBR PCR (n = 9) [1, 3]: 3.3 ± 0.2 fold | c-fos fold-change, SYBR PCR (n = 9) [1, 3]: 52.0 ± 5.8 fold | c-jun fold-change, SYBR PCR (n = 9) [1, 3]: 6.6 ± 0.9 fold | gly96 fold-change, SYBR PCR (n = 9) [1, 3]: 3.8 ± 0.5 fold | ler2/Pip92 fold-change, SYBR PCR (n = 9) [1, 3]: 17.1 ± 2.4 fold | transgelin fold-change, SYBR PCR (n = 9) [1, 3]: 1.8 ± 0.2 fold | β-actin fold-change, SYBR PCR (n = 9) [1, 3]: 1.6 ± 0.1 fold | γ-actin fold-change, SYBR PCR (n = 9) [1, 3]: 3.9 ± 0.4 fold | SCL regulation by real-time PCR [1, 4]: 2.4 fold | STY kinase regulation by real-time PCR [1, 4]: 1.7 fold | glucose transport protein regulation by real-time PCR [1, 4]: 2.2 fold | levels of gly96 in the presence of CHX [2]: increase

From US7723023B2, “Use of intrinsic reporters of cell signaling for high content drug profiling and toxicity screening” (Mount Sinai School of Medicine, priority 2001, dated 2010)
